Reference: the supplement of paper PMC10307832

Key:
Test in all cases: relative viability (nuclei count vs DMSO), 5 days (fraction); higher = more cells survive
201T = tested on: 201T
Procedure, shortened: (§1)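 For relative viability, nuclei counts in treated wells were divided by those in vehicle wells. Lung cancer cell lines had been pin-tool dosed in 1536-well plates the day after seeding and cultured for 5 days, then fixed and stained in one step (final 0.05% Triton X-100, 1% formaldehyde, 1 ug/ml Hoechst) and imaged at 4×. Doses were one drug alone or a fixed anchor-drug dose plus five library-drug doses (not always all listed) in √10 steps, and values are duplicate-plate medians.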

COR-L 105 = tested on: COR-L 105
Procedure, shortened: as §1

COR-L23 = tested on: COR-L23
Procedure, shortened: as §1

EKVX = tested on: EKVX
Procedure, shortened: as §1

EPLC-272H = tested on: EPLC-272H
Procedure, shortened: as §1

H3255 = tested on: H3255
Procedure, shortened: as §1

HCC-15 = tested on: HCC-15
Procedure, shortened: as §1

HCC-827 = tested on: HCC-827
Procedure, shortened: as §1

LCLC-97TM1 = tested on: LCLC-97TM1
Procedure, shortened: as §1

NCI-H1395 = tested on: NCI-H1395
Procedure, shortened: as §1

NCI-H1648 = tested on: NCI-H1648
Procedure, shortened: as §1

NCI-H1650 = tested on: NCI-H1650
Procedure, shortened: as §1

NCI-H1651 = tested on: NCI-H1651
Procedure, shortened: as §1

NCI-H1915 = tested on: NCI-H1915
Procedure, shortened: as §1

NCI-H2023 = tested on: NCI-H2023
Procedure, shortened: as §1

NCI-H322M = tested on: NCI-H322M
Procedure, shortened: as §1

NCI-H358 = tested on: NCI-H358
Procedure, shortened: as §1

NCI-H460 = tested on: NCI-H460
Procedure, shortened: as §1

NCI-H520 = tested on: NCI-H520
Procedure, shortened: as §1

NCI-H596 = tested on: NCI-H596
Procedure, shortened: as §1

NCI-H647 = tested on: NCI-H647
Procedure, shortened: as §1

SK-MES-1 = tested on: SK-MES-1
Procedure, shortened: as §1

SW 900 = tested on: SW 900
Procedure, shortened: as §1

C=C1C(=O)O[C@@H](CCCCCCCC)[C@@H]1C(=O)O [C-75] + O=C(CCCCCCC(=O)Nc1ccccc1)NO [Vorinostat] (partner 1 µM)
relative viability (201T; first compound 0.08 µM): 0.976 | relative viability (201T; first compound 0.253 µM): 1.31 | relative viability (201T; first compound 0.8 µM): 0.91 | relative viability (201T; first compound 2.53 µM): 0.936 | relative viability (201T; first compound 8 µM): 0.979 | relative viability (COR-L 105; first compound 0.08 µM): 0.906 | relative viability (COR-L 105; first compound 0.253 µM): 0.826 | relative viability (COR-L 105; first compound 0.8 µM): 0.895 | relative viability (COR-L 105; first compound 2.53 µM): 0.859 | relative viability (COR-L 105; first compound 8 µM): 0.813 | relative viability (COR-L23; first compound 0.08 µM): 0.507 | relative viability (COR-L23; first compound 0.253 µM): 0.408 | relative viability (COR-L23; first compound 0.8 µM): 0.446 | relative viability (COR-L23; first compound 2.53 µM): 0.37 | relative viability (COR-L23; first compound 8 µM): 0.327 | relative viability (EKVX; first compound 0.08 µM): 0.725 | relative viability (EKVX; first compound 0.253 µM): 0.827 | relative viability (EKVX; first compound 0.8 µM): 0.654 | relative viability (EKVX; first compound 8 µM): 0.728 | relative viability (EPLC-272H; first compound 0.08 µM): 0.477 | relative viability (EPLC-272H; first compound 0.253 µM): 0.545 | relative viability (EPLC-272H; first compound 0.8 µM): 0.655 | relative viability (EPLC-272H; first compound 2.53 µM): 0.41 | relative viability (EPLC-272H; first compound 8 µM): 0.391 | relative viability (H3255; first compound 0.08 µM): 0.846 | relative viability (H3255; first compound 0.253 µM): 0.621 | relative viability (H3255; first compound 0.8 µM): 0.79 | relative viability (H3255; first compound 2.53 µM): 0.627 | relative viability (H3255; first compound 8 µM): 0.732 | relative viability (HCC-15; first compound 0.08 µM): 0.831 | relative viability (HCC-15; first compound 0.253 µM): 0.918 | relative viability (HCC-15; first compound 0.8 µM): 0.838 | relative viability (HCC-15; first compound 2.53 µM): 0.862 | relative viability (HCC-15; first compound 8 µM): 0.835 | relative viability (HCC-827; first compound 0.253 µM): 0.662 | relative viability (HCC-827; first compound 0.8 µM): 0.721 | relative viability (HCC-827; first compound 8 µM): 0.88 | relative viability (LCLC-97TM1; first compound 0.08 µM): 0.864 | relative viability (LCLC-97TM1; first compound 0.253 µM): 0.817 | relative viability (LCLC-97TM1; first compound 0.8 µM): 0.49 | relative viability (LCLC-97TM1; first compound 2.53 µM): 0.413 | relative viability (LCLC-97TM1; first compound 8 µM): 0.455 | relative viability (NCI-H1395; first compound 0.08 µM): 0.649 | relative viability (NCI-H1395; first compound 0.253 µM): 0.768 | relative viability (NCI-H1395; first compound 2.53 µM): 0.634 | relative viability (NCI-H1395; first compound 8 µM): 0.711 | relative viability (NCI-H1648; first compound 0.08 µM): 0.571 | relative viability (NCI-H1648; first compound 0.253 µM): 1.1 | relative viability (NCI-H1648; first compound 0.8 µM): 0.283 | relative viability (NCI-H1648; first compound 8 µM): 0.216 | relative viability (NCI-H1650; first compound 0.08 µM): 0.597 | relative viability (NCI-H1650; first compound 0.253 µM): 0.751 | relative viability (NCI-H1650; first compound 0.8 µM): 0.665 | relative viability (NCI-H1650; first compound 8 µM): 0.463 | relative viability (NCI-H1651; first compound 0.08 µM): 0.55 | relative viability (NCI-H1651; first compound 0.253 µM): 0.58 | relative viability (NCI-H1651; first compound 0.8 µM): 0.525 | relative viability (NCI-H1651; first compound 2.53 µM): 0.522 | relative viability (NCI-H1651; first compound 8 µM): 0.509 | relative viability (NCI-H1915; first compound 0.08 µM): 0.506 | relative viability (NCI-H1915; first compound 0.253 µM): 0.548 | relative viability (NCI-H1915; first compound 0.8 µM): 0.526 | relative viability (NCI-H1915; first compound 2.53 µM): 0.475 | relative viability (NCI-H1915; first compound 8 µM): 0.536 | relative viability (NCI-H2023; first compound 0.08 µM): 0.653 | relative viability (NCI-H2023; first compound 0.253 µM): 0.944 | relative viability (NCI-H2023; first compound 0.8 µM): 0.604 | relative viability (NCI-H2023; first compound 2.53 µM): 0.6 | relative viability (NCI-H2023; first compound 8 µM): 0.37 | relative viability (NCI-H322M; first compound 0.08 µM): 0.859 | relative viability (NCI-H322M; first compound 0.253 µM): 1.32 | relative viability (NCI-H322M; first compound 0.8 µM): 0.851 | relative viability (NCI-H322M; first compound 8 µM): 0.847 | relative viability (NCI-H358; first compound 0.08 µM): 0.704 | relative viability (NCI-H358; first compound 0.253 µM): 0.789 | relative viability (NCI-H358; first compound 0.8 µM): 0.689 | relative viability (NCI-H358; first compound 8 µM): 0.608 | relative viability (NCI-H460; first compound 0.08 µM): 0.698 | relative viability (NCI-H460; first compound 0.253 µM): 0.882 | relative viability (NCI-H460; first compound 0.8 µM): 0.688 | relative viability (NCI-H460; first compound 2.53 µM): 0.58 | relative viability (NCI-H460; first compound 8 µM): 0.674 | relative viability (NCI-H520; first compound 0.08 µM): 0.647 | relative viability (NCI-H520; first compound 0.253 µM): 0.716 | relative viability (NCI-H520; first compound 0.8 µM): 0.637 | relative viability (NCI-H520; first compound 2.53 µM): 0.577 | relative viability (NCI-H520; first compound 8 µM): 0.592 | relative viability (NCI-H596; first compound 0.08 µM): 0.644 | relative viability (NCI-H596; first compound 0.253 µM): 0.642 | relative viability (NCI-H596; first compound 0.8 µM): 0.671 | relative viability (NCI-H596; first compound 2.53 µM): 0.516 | relative viability (NCI-H596; first compound 8 µM): 0.483 | relative viability (NCI-H647; first compound 0.08 µM): 0.47 | relative viability (NCI-H647; first compound 0.253 µM): 0.873 | relative viability (NCI-H647; first compound 0.8 µM): 0.638 | relative viability (NCI-H647; first compound 2.53 µM): 0.464 | relative viability (NCI-H647; first compound 8 µM): 0.486 | relative viability (SK-MES-1; first compound 0.08 µM): 1.08 | relative viability (SK-MES-1; first compound 0.253 µM): 1.12 | relative viability (SK-MES-1; first compound 0.8 µM): 1.06 | relative viability (SK-MES-1; first compound 2.53 µM): 1.04 | relative viability (SK-MES-1; first compound 8 µM): 1.1 | relative viability (SW 900; first compound 0.08 µM): 0.669 | relative viability (SW 900; first compound 0.253 µM): 0.824 | relative viability (SW 900; first compound 0.8 µM): 0.47 | relative viability (SW 900; first compound 2.53 µM): 0.395 | relative viability (SW 900; first compound 8 µM): 0.49
